Measured values: article PMC6686156, “Discovery of Sustainable Drugs for Neglected Tropical Diseases: Cashew Nut Shell Liquid (CNSL)‐Based Hybrids Target Mitochondrial Function and ATP Production in Trypanosoma brucei” (Chemmedchem, 2019)
Like-named read-outs stand apart in the source and are kept apart here.

Legend:
T. brucei GAPDH = T. brucei GAPDH (Trypanosoma brucei brucei, UniProt P22512); assay: Inhibition of T. brucei GAPDH; type: biochemical; details: fixed concentration of 10 μM; data not shown; read-out: decrease of GAPDH activity
From the text: […]. […] Limitations of solubility prevented us from testing the series at higher concentrations. However, it must be noted that we cannot exclude the possibility of a low‐affinity inhibition of GAPDH contributing to the trypanocidal effect, as compounds may accumulate to relatively high concentrations within the parasite.

[1] = tested on: T. b. brucei 427WT bloodstream trypomastigotes; assay: microbe, parasite or virus in culture; type: cell-based, Trypanosoma brucei brucei; details: for EC50: Trypanosoma brucei; for SI, selectivity index=EC50(HFF)/EC50(T. b. b. WT): HFF versus T. b. b. 427WT; for RF, resistance factor (+ 5 mM glycerol versus control): Table 2
Protocol: (§1) Organisms and culture media: Only bloodstream trypomastigotes of T. b. brucei were used throughout this study. […] Parasites were cultured in vented flasks at 37 °C and 5 % CO2 atmosphere and they were passaged every 3 days. Bloodstream forms of T. congolense savannah‐type strain IL3000 were cultured in basal MEM medium, supplemented by 10 % fresh goat serum, 14 μL of β‐mercaptoethanol, 800 μL of 200 mM glutamine solution, and 10 mL of penicillin/streptomycin solution per liter of medium (pH 7.3).48 T. congolense were cultured in six‐well plates at 34 °C and 5 % CO2.
(§2) In brief, the assays were performed in 96‐well plates with 2×10^5 cells per well for T. b. brucei or 5×10^5 cells per well for T. congolense, in their respective culture media. First, 200 μL of test compounds’ solutions (400 μM, in T. brucei or T. congolense medium as appropriate) was added to the first well of each 12‐well row, from which doubling dilutions were conducted over one row per test compound. […] Fluorescence was detected using a FLUOstar Optima (BMG Labtech, Durham, NC, USA) at wavelength of 540 nm (excitation), 590 nm (emission). EC50 values were calculated by nonlinear regression using an equation for a sigmoidal dose–response curve with variable slope using Prism 5.0 (GraphPad Software Inc., San Diego, CA, USA).

T. congolense IL3000 WT = assay: In vitro drug susceptibility assay (resazurin), T. congolense; type: cell-based; details: bloodstream forms, read-out: EC50 T. c. IL3000 WT
Protocol: as §1, §2

[2] = Cytotoxicity assay on human foreskin fibroblast (HFF), resazurin; type: cell-based; details: human foreskin fibroblast (HFF) cells, tested up to 200 μM, read-out: HFF cytotoxic activity (EC50)
Protocol: Cytotoxicity assay on human foreskin fibroblast (HFF): Toxicity of test compounds to mammalian cells was carried out using the resazurin assay previously described31 with slight modifications as follows. HFF cells were grown in a culture medium containing 500 mL of Dulbecco's modified Eagle's medium (DMEM; Sigma), 50 mL newborn calf serum (NBCS; Gibco), 5 mL penicillin/streptomycin (Gibco), and 5 mL of L‐Glutamax ([…], Gibco), at 37 °C and 5 % CO2 in vented flasks and passaged at 80–85 % of confluence. For the cytotoxicity assay, cells were suspended at 3×10^5 cells mL^−1 and 100 μL aliquots were added to each well of a 96‐well plate. The plate was incubated at 37 °C and 5 % CO2 for 24 h to allow cell adhesion. Serial test compounds dilution was performed in a different 96‐well plate and 100 μL of each dilution was transferred to each well containing cells, resulting in exposure of cells to 200–0.2 μM of test compound. Phenylarsine oxide (Sigma–Aldrich) was used as positive control and drug‐free incubation as negative control. The plates were incubated at 37 °C and 5 % CO2 for an additional 30 h, at which point 10 μL of resazurin solution ([…] in PBS) was added, followed by a final incubation for 24 h. The plates were read and the data analyzed as described above for the trypanosome assay.

[3] = tested on: T. b. brucei 427WT trypomastigotes; assay: Growth curve / time-to-kill determination; type: cell-based, Trypanosoma brucei brucei; details: 1× EC50; for time to sterilize the culture: 427WT seeded at 1×10^5 cells/mL
Protocol: To determine whether 18–22 inhibited growth or cell division rather than causing cell death of T. b. brucei, cell growth curves were performed by treating 427WT trypomastigotes with concentrations corresponding to 0.5×, 1×, and 2× the EC50 value, using untreated cells as a control. Incubation with test compounds at half the EC50 (Figure 3 A) caused mostly some delayed growth phenotype, with rates increasing after 10 or 20 h. […] At double the concentration (Figure 3 C), all the hybrids cleared the culture between the 4 h and 8 h time points, with the cell populations rapidly declining between 2 and 4 h.
Untreated parasites, used as control, were grown in parallel. The cells were counted by using hemocytometer cell counter (cell count/mL×10^4) at 0, 2, 4, 8, 12, 24, 28, 32, 36, 48 h of incubation. Each experiment was performed as two independent replicates, and each sample was counted at least twice.

T. b. brucei B48 = assay: microbe, parasite or virus in culture; type: cell-based, Trypanosoma brucei brucei; details: for RF, resistance factor relative to WT (B48): B48 versus 427WT; for EC50: Trypanosoma brucei, read-out: EC50 T. b. b. B48
Protocol: as §1, §2

[4] = tested on: T. b. brucei aqp2/aqp3‐KO; assay: microbe, parasite or virus in culture; type: cell-based, Trypanosoma brucei brucei; details: for EC50: Trypanosoma brucei, read-out: EC50 T. b. b. aqp2/aq3‐KO; for RF, resistance factor relative to WT (aqp2/aqp3-KO): aqp2/aqp3-KO versus 427WT
Protocol: as §1, §2

[5] = 72 h, bloodstream trypomastigotes, resazurin, 48 h + 24 h, n=4, read-out: EC50 T. b. b. 427WT
[6] = Table 2, 5 mM glycerol in medium, average±SEM of three, read-out: EC50 s427WT + 5 mM glycerol
[7] = Table 2, no glycerol, average±SEM of three, read-out: EC50 Control s427WT

T. brucei GAPDH, sequence (P22512 whole entry): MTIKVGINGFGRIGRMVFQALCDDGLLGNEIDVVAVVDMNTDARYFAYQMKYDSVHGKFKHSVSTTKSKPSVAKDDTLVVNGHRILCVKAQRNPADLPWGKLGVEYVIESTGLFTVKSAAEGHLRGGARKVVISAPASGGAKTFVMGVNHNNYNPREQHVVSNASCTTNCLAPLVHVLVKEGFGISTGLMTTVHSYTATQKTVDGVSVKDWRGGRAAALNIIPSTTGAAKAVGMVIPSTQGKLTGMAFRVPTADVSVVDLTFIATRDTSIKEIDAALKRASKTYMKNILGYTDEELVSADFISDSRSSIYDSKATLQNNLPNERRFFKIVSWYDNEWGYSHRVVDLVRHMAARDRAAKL

Question: What does the source list for `CCCCCCCCCCCCCCCc1cccc(OC2=CC(=O)c3cccc(OC)c3C2=O)c1C(=O)OC` [Compound 9, Methyl 2‐((8‐methoxy‐1,4‐dioxo‐1,4‐dihydronaphthalen‐2‐yl)oxy)‐6 pentadecylbenzoate]?
Answer: inhibition at 10 µM (T. brucei GAPDH): < 15%; EC50 [1, 5]: > 200 µM

Question: With `N=C(N)c1ccc(N=NNc2ccc(C(=N)N)cc2)cc1` [DA, Diminazene aceturate, reference compound] as the compound, how does the EC50 (T. congolense IL3000 WT) read?
Answer: 0.17 ± 0.0003 µM

Question: Which inhibition at 10 µM (T. brucei GAPDH) does the source give for `CCCCCCCCCCCCCCCc1cccc(OC2=CC(=O)c3c(O)cccc3C2=O)c1` [Compound 17, 5‐Hydroxy‐2‐(3‐pentadecylphenoxy)naphthalene‐1,4‐dione] here?
Answer: < 15%

Question: And the EC50 [1, 5]?
Answer: > 200 µM

Question: With `CCCCCCCCCCCCCCCc1cccc(OC2=CC(=O)c3ccccc3C2=O)c1C(=O)OC` [Compound 8, Methyl 2‐((1,4‐dioxo‐1,4‐dihydronaphthalen‐2‐yl)oxy)‐6‐pentadecylbenzoate] as the compound, how does the inhibition at 10 µM (T. brucei GAPDH) read?
Answer: < 15%

Question: And the EC50 [1, 5]?
Answer: > 200 µM

Question: What does the source list for `O=C1C=C(Oc2cccc(CCCCCCCCO)c2)C(=O)c2c(O)cccc21` [Compound 21, 8‐Hydroxy‐2‐(3‐(8‐hydroxyoctyl)phenoxy)naphthalene‐1,4‐dione]?
Answer: EC50 at 54 h [2]: > 200 µM; effect on cell growth ([3]; over 48 h): decreased the growth rate substantially, with a nearly trypanostatic effect over the first 12 h; inhibition at 10 µM (T. brucei GAPDH): < 15%; RF, resistance factor relative to WT (B48) (T. b. brucei B48): 0.91; EC50 (T. b. brucei B48): 36.9 ± 5.3 µM; EC50 [4]: 46.7 ± 7.7 µM; RF, resistance factor relative to WT (aqp2/aqp3-KO) [4]: 1.2; SI, selectivity index=EC50(HFF)/EC50(T. b. b. WT) [1]: >5; EC50 [1, 5]: 40.5 ± 4.9 µM

Question: For `CCCCCCCCCCCCCCCc1cccc(OC2=CC(=O)c3ccccc3C2=O)c1` [Compound 13, 2‐(3‐Pentadecylphenoxy)naphthalene‐1,4‐dione], which inhibition at 10 µM (T. brucei GAPDH) is on record?
Answer: < 15%

Question: And the EC50 [1, 5]?
Answer: > 200 µM

Question: For `CCCCCCCCCCCCCCCc1cccc(OC2=CC(=O)c3cccc(O)c3C2=O)c1` [Compound 16, 8‐Hydroxy‐2‐(3‐pentadecylphenoxy)naphthalene‐1,4‐dione], which inhibition at 10 µM (T. brucei GAPDH) is on record?
Answer: < 15%

Question: And the EC50 [1, 5]?
Answer: > 200 µM

Question: Which results are given for `CCCCCCCCCCCCCCCc1cccc(OC2=CC(=O)c3c(O)cccc3C2=O)c1C(=O)OC` [Compound 12, Methyl 2‐((5‐hydroxy‐1,4‐dioxo‐1,4‐dihydronaphthalen‐2‐yl)oxy)‐6‐pentadecylbenzoate]?
Answer: inhibition at 10 µM (T. brucei GAPDH): < 15%; EC50 [1, 5]: > 200 µM

Question: Which EC50 at 54 h [2] does the source give for `O=C1C=C(Oc2cccc(CCCCCCCCO)c2)C(=O)c2ccccc21` [Compound 18, 2‐(3‐(8‐Hydroxyoctyl)phenoxy)naphthalene‐1,4‐dione] here?
Answer: > 200 µM

Question: What about the “time to sterilize the culture” value [3] of the same compound?
Answer: 2 h

Question: What about the inhibition at 10 µM (T. brucei GAPDH) of the same compound?
Answer: < 15%

Question: What about the “RF, resistance factor relative to WT (B48)” value (T. b. brucei B48) of the same compound?
Answer: 0.95

Question: And the EC50 (T. b. brucei B48)?
Answer: 8.6 ± 2.4 µM

Question: And the EC50 [4]?
Answer: 10.1 ± 2.2 µM

Question: And the “RF, resistance factor relative to WT (aqp2/aqp3-KO)” value [4]?
Answer: 1.1

Question: What about the “SI, selectivity index=EC50(HFF)/EC50(T. b. b. WT)” value [1] of the same compound?
Answer: >21.98

Question: What about the “RF, resistance factor (+ 5 mM glycerol versus control)” value [1] of the same compound?
Answer: 1.04

Question: What about the EC50 [1, 5] of the same compound?
Answer: 9.1 ± 1.4 µM

Question: And the EC50 [1, 6]?
Answer: 31.2 ± 0.6 µM

Question: What about the EC50 [1, 7] of the same compound?
Answer: 30 ± 0.08 µM

Question: With `COc1cccc2c1C(=O)C(Oc1cccc(CCCCCCCCO)c1)=CC2=O` [Compound 19, 2‐(3‐(8‐Hydroxyoctyl)phenoxy)‐8‐methoxynaphthalene‐1,4‐dione] as the compound, how does the EC50 at 54 h [2] read?
Answer: > 200 µM

Question: What about the “time to sterilize the culture” value [3] of the same compound?
Answer: 8 h

Question: What about the inhibition at 10 µM (T. brucei GAPDH) of the same compound?
Answer: < 15%

Question: And the “RF, resistance factor relative to WT (B48)” value (T. b. brucei B48)?
Answer: 0.98

Question: What about the EC50 (T. b. brucei B48) of the same compound?
Answer: 14.6 ± 1.7 µM

Question: And the EC50 [4]?
Answer: 17.7 ± 1.5 µM

Question: What about the “RF, resistance factor relative to WT (aqp2/aqp3-KO)” value [4] of the same compound?
Answer: 1.2

Question: What about the “SI, selectivity index=EC50(HFF)/EC50(T. b. b. WT)” value [1] of the same compound?
Answer: >13.3

Question: And the “RF, resistance factor (+ 5 mM glycerol versus control)” value [1]?
Answer: 0.97

Question: And the EC50 [1, 5]?
Answer: 15 ± 1.3 µM

Question: What about the EC50 [1, 6] of the same compound?
Answer: 16.3 ± 0.4 µM

Question: And the EC50 [1, 7]?
Answer: 16.8 ± 0.06 µM

Question: Which inhibition at 10 µM (T. brucei GAPDH) does the source give for `CCCCCCCCCCCCCCCc1cccc(OC2=CC(=O)c3c(OC)cccc3C2=O)c1` [Compound 15, 5‐Methoxy‐2‐(3‐pentadecylphenoxy)naphthalene‐1,4‐dione] here?
Answer: < 15%

Question: What about the EC50 [1, 5] of the same compound?
Answer: > 200 µM

Question: Which results are given for `N=C(N)c1ccc(OCCCCCOc2ccc(C(=N)N)cc2)cc1` [PMD, Pentamidine, reference compound]?
Answer: RF, resistance factor relative to WT (B48) (T. b. brucei B48): 339; EC50 (T. b. brucei B48): 3.1 ± 0.7 µM; EC50 [4]: 0.2 ± 0.01 µM; RF, resistance factor relative to WT (aqp2/aqp3-KO) [4]: 22.0; EC50 [1, 5]: 0.0093 ± 0.0001 µM

Question: Which inhibition at 10 µM (T. brucei GAPDH) does the source give for `CCCCCCCCCCCCCCCc1cccc(OC2=CC(=O)c3c(OC)cccc3C2=O)c1C(=O)OC` [Compound 10, Methyl 2‐((5‐methoxy‐1,4‐dioxo‐1,4‐dihydronaphthalen‐2‐yl)oxy)‐6‐pentadecylbenzoate] here?
Answer: < 15%

Question: And the EC50 [1, 5]?
Answer: > 200 µM

Question: Which results are given for `CCCCCCCCCCCCCCCc1cccc(OC2=CC(=O)c3cccc(OC)c3C2=O)c1` [Compound 14, 8‐Methoxy‐2‐(3‐pentadecylphenoxy)naphthalene‐1,4‐dione]?
Answer: inhibition at 10 µM (T. brucei GAPDH): < 15%; EC50 [1, 5]: > 200 µM

Question: With `CCCCCCCCCCCCCCCc1cccc(OC2=CC(=O)c3cccc(O)c3C2=O)c1C(=O)OC` [Compound 11, Methyl 2‐((8‐hydroxy‐1,4‐dioxo‐1,4‐dihydronaphthalen‐2‐yl)oxy)‐6‐pentadecylbenzoate] as the compound, how does the inhibition at 10 µM (T. brucei GAPDH) read?
Answer: < 15%

Question: What about the EC50 [1, 5] of the same compound?
Answer: > 200 µM
